# From patent US20190358181A1, “METHODS FOR AUTISM SPECTRUM DISORDER PHARMACOTHERAPY” (priority 2017, published 2019)
# Tested on: 610 metabolites from 63 biochemical pathways
# Test: Targeted broad-spectrum plasma metabolomic analysis (LC-MS/MS), paired pre-infusion vs post-infusion (2-days and 6-weeks)
# Assay type: in vivo, human
# Settings: plasma, 2-days after infusion vs pre-infusion
# Procedure: Targeted, broad-spectrum, plasma metabolomic analysis of 610 metabolites from 63 biochemical pathways was performed by high performance liquid chromatography and tandem mass spectrometry (LC-MS/MS) on the samples collected from patients in Example 1. Venous blood was collected between the hours of 8 am and 5 pm, at least 3 hours after the last meal, into lithium-heparin vacutainer tubes (BD #367884). Plasma was separated by centrifugation at 900 g×10 minutes at room temperature within one hour of collection. The resulting fresh lithium-heparin plasma was transferred to labeled 1.2 ml or 2.0 ml externally threaded cryotubes with a minimum headspace air gap for storage at −80° C. for analysis. Samples were analyzed on an AB SCIEX QTRAP 5500 triple quadrupole mass spectrometer equipped with a Turbo V electrospray ionization (ESI) source, Shimadzu LC-20A UHPLC system, and a PAL CTC autosampler. Typically, 90 μl of plasma was thawed on ice and transferred to a 1.7 ml Eppendorf tube. Five (5.0) μl of a cocktail containing 25-35 commercial stable isotope internal standards, and 5.0 μl of 57 stable isotope internal standards that were custom-synthesized in E. coli NCM3722, Caenorhabditis elegans N2, and Komagataella phaffii (ATCC 76273; formerly known as Pichia pastoris) by metabolic labeling with 13C-glucose and 13C-bicarbonate, were added, mixed, and incubated for 10 min at 20° C. to permit small molecules and vitamins in the internal standards to associate with plasma binding proteins. Macromolecules (protein, DNA, RNA, glycans, etc.) were precipitated by extraction with 4 volumes (400 μl) of cold (−20° C.), acetonitrile:methanol (50:50) (LCMS grade, Cat #LC015-2.5 and GC230-4, Burdick & Jackson, Honeywell), vortexed vigorously, and incubated on crushed ice for 10 min, then removed by centrifugation at 16,000 g×10 min at 4° C. The supernatants containing the extracted metabolites and internal standards in the resulting 40:40:20 solvent mix of acetonitrile:methanol:water were transferred to labeled cryotubes and stored at −80° C. for LCMS/MS analysis.
# LC-MS/MS analysis was performed by scheduled multiple reaction monitoring (sMRM) under Analyst v1.6.2 software control in both negative and positive mode with rapid polarity switching (50 ms). Nitrogen was used for curtain gas (set to 30), collision gas (set to high), ion source gas 1 and 2 (set to 35). The source temperature was 500° C. Spray voltage was set to −4500 V in negative mode and 5500 V in positive mode. The values for Q1 and Q3 mass-to-charge ratios (m/z), declustering potential (DP), entrance potential (EP), collision energy (CE), and collision cell exit potential (CXP) were determined and optimized for each MRM for each metabolite. Ten microliters of extract was injected by PAL CTC autosampler via a 10 μl stainless steel loop into a 250 mm×2.0 mm, 4 μm polymer based NH2 HPLC column (Asahipak NH2P-40 2E, Showa Denko America, Inc., NY) held at 25° C. for chromatographic separation. The mobile phase was solvent A: 95% water with 20 mM (NH4)2CO3 (Sigma, Fluka Cat #74415-250G-F), 5% acetonitrile, and 38 mM NH4OH (Sigma, Fluka Cat #17837-100ML), final pH 9.75; solvent B: 100% acetonitrile. Separation was achieved using the following gradient: 0-3.5 min: 95% B, 3.6-8 min: 85% B, 8.1-13 min: 75% B, 13.5-35 min: 0% B, 36-46 min: 95% B, 46.1 min: end. The flow rate was 200 μl/min. Pump pressures ranged from 920-2600 psi over the course of the gradient. All the samples were kept at 4° C. during analysis. The chromatographic peaks were identified using MultiQuant (v3.0, Sciex), confirmed by manual inspection, and the peak areas integrated. […]
# [1] = SAM, SAH, Methionine, Cysteine, Glutathione Metabolism
# [2] = Taurine, Hypotaurine Metabolism
# [3] = Tryptophan, Kynurenine, Serotonin, Melatonin Metabolism
# [4] = Tyrosine and Phenylalanine Metabolism
# [5] = Vitamin D (Calciferol) Metabolism
smiles,measurement,setting,value
"Cc1ccc(C(=O)Nc2ccc(S(=O)(=O)O)c3cc(S(=O)(=O)O)cc(S(=O)(=O)O)c23)cc1NC(=O)c1cccc(NC(=O)Nc2cccc(C(=O)Nc3cc(C(=O)Nc4ccc(S(=O)(=O)O)c5cc(S(=O)(=O)O)cc(S(=O)(=O)O)c45)ccc3C)c2)c1 [Suramin, suramin]","Z Score, Azelaic acid","Nitric Oxide, Superoxide, Peroxide Metabolism",−2.024
same,"Linear Ratio, LysoPC(16:0)",Phospholipid Metabolism,0.777
same,"Linear Ratio, PA(16:0/16:1)",Phospholipid Metabolism,0.793
same,"Linear Ratio, PG(16:0/16:0)",Phospholipid Metabolism,0.549
same,"VIP Score, LysoPC(16:0)",Phospholipid Metabolism,2.067
same,"VIP Score, PA(16:0/16:1)",Phospholipid Metabolism,1.998
same,"VIP Score, PG(16:0/16:0)",Phospholipid Metabolism,1.664
same,"Z Abs, LysoPC(16:0)",Phospholipid Metabolism,0.908
same,"Z Abs, PA(16:0/16:1)",Phospholipid Metabolism,0.813
same,"Z Abs, PG(16:0/16:0)",Phospholipid Metabolism,0.667
same,"Z Score, LysoPC(16:0)",Phospholipid Metabolism,−0.908
same,"Z Score, PA(16:0/16:1)",Phospholipid Metabolism,−0.813
same,"Z Score, PG(16:0/16:0)",Phospholipid Metabolism,−0.667
same,"Linear Ratio, 1-Methyladenine",Purine Metabolism,1.631
same,"Linear Ratio, AICAR",Purine Metabolism,1.309
same,"Linear Ratio, Allantoin",Purine Metabolism,1.663
same,"Linear Ratio, Cyclic adenosine monophosphate",Purine Metabolism,0.855
same,"Linear Ratio, Deoxyguanosine diphosphate",Purine Metabolism,0.889
same,"Linear Ratio, Guanosine",Purine Metabolism,0.702
same,"Linear Ratio, Hypoxanthine",Purine Metabolism,0.745
same,"Linear Ratio, Purine",Purine Metabolism,1.203
same,"Linear Ratio, Xanthosine",Purine Metabolism,0.821
same,"VIP Score, 1-Methyladenine",Purine Metabolism,2.033
same,"VIP Score, AICAR",Purine Metabolism,1.787
same,"VIP Score, Allantoin",Purine Metabolism,2.195
same,"VIP Score, Cyclic adenosine monophosphate",Purine Metabolism,1.949
same,"VIP Score, Deoxyguanosine diphosphate",Purine Metabolism,2.264
same,"VIP Score, Guanosine",Purine Metabolism,1.519
same,"VIP Score, Hypoxanthine",Purine Metabolism,2.267
same,"VIP Score, Purine",Purine Metabolism,1.847
same,"VIP Score, Xanthosine",Purine Metabolism,1.764
same,"Z Abs, 1-Methyladenine",Purine Metabolism,1.337
same,"Z Abs, AICAR",Purine Metabolism,1.310
same,"Z Abs, Allantoin",Purine Metabolism,0.926
same,"Z Abs, Cyclic adenosine monophosphate",Purine Metabolism,0.681
same,"Z Abs, Deoxyguanosine diphosphate",Purine Metabolism,1.276
same,"Z Abs, Guanosine",Purine Metabolism,0.766
same,"Z Abs, Hypoxanthine",Purine Metabolism,1.000
same,"Z Abs, Purine",Purine Metabolism,1.137
same,"Z Abs, Xanthosine",Purine Metabolism,1.316
same,"Z Score, 1-Methyladenine",Purine Metabolism,1.337
same,"Z Score, AICAR",Purine Metabolism,1.310
same,"Z Score, Allantoin",Purine Metabolism,0.926
same,"Z Score, Cyclic adenosine monophosphate",Purine Metabolism,−0.681
same,"Z Score, Deoxyguanosine diphosphate",Purine Metabolism,−1.276
same,"Z Score, Guanosine",Purine Metabolism,−0.766
same,"Z Score, Hypoxanthine",Purine Metabolism,−1.000
same,"Z Score, Purine",Purine Metabolism,1.137
same,"Z Score, Xanthosine",Purine Metabolism,−1.316
same,"Linear Ratio, Cytosine",Pyrimidine Metabolism,1.689
same,"Linear Ratio, Orotic acid",Pyrimidine Metabolism,0.670
same,"VIP Score, Cytosine",Pyrimidine Metabolism,2.556
same,"VIP Score, Orotic acid",Pyrimidine Metabolism,1.787
same,"Z Abs, Cytosine",Pyrimidine Metabolism,2.055
same,"Z Abs, Orotic acid",Pyrimidine Metabolism,0.612
same,"Z Score, Cytosine",Pyrimidine Metabolism,2.055
same,"Z Score, Orotic acid",Pyrimidine Metabolism,−0.612
same,"Linear Ratio, Cysteamine",[1],1.107
same,"Linear Ratio, Cysteine-S-sulfate",[1],0.869
same,"Linear Ratio, Methionine sulfoxide",[1],1.331
same,"VIP Score, Cysteamine",[1],2.075
same,"VIP Score, Cysteine-S-sulfate",[1],1.682
same,"VIP Score, Methionine sulfoxide",[1],1.817
same,"Z Abs, Cysteamine",[1],1.398
same,"Z Abs, Cysteine-S-sulfate",[1],0.644
same,"Z Abs, Methionine sulfoxide",[1],1.738
same,"Z Score, Cysteamine",[1],1.398
same,"Z Score, Cysteine-S-sulfate",[1],−0.644
same,"Z Score, Methionine sulfoxide",[1],1.738
same,"Linear Ratio, SM(d18:1/20:0)",Sphingomyelin Metabolism,0.712
same,"Linear Ratio, SM(d18:1/20:1)",Sphingomyelin Metabolism,0.745
same,"VIP Score, SM(d18:1/20:0)",Sphingomyelin Metabolism,1.576
same,"VIP Score, SM(d18:1/20:1)",Sphingomyelin Metabolism,2.033
same,"Z Abs, SM(d18:1/20:0)",Sphingomyelin Metabolism,0.770
same,"Z Abs, SM(d18:1/20:1)",Sphingomyelin Metabolism,1.250
same,"Z Score, SM(d18:1/20:0)",Sphingomyelin Metabolism,−0.770
same,"Z Score, SM(d18:1/20:1)",Sphingomyelin Metabolism,−1.250
same,"Linear Ratio, Taurine",[2],0.786
same,"VIP Score, Taurine",[2],2.042
same,"Z Abs, Taurine",[2],0.942
same,"Z Score, Taurine",[2],−0.942
same,"Linear Ratio, L-Kynurenine",[3],1.099
same,"VIP Score, L-Kynurenine",[3],1.617
same,"Z Abs, L-Kynurenine",[3],0.625
same,"Z Score, L-Kynurenine",[3],0.625
same,"Linear Ratio, L-Phenylalanine",[4],1.164
same,"VIP Score, L-Phenylalanine",[4],1.839
same,"Z Abs, L-Phenylalanine",[4],0.957
same,"Z Score, L-Phenylalanine",[4],0.957
same,"Linear Ratio, 1,25-Dihydroxyvitamin D3",[5],0.273
same,"VIP Score, 1,25-Dihydroxyvitamin D3",[5],3.134
same,"Z Abs, 1,25-Dihydroxyvitamin D3",[5],1.447
same,"Z Score, 1,25-Dihydroxyvitamin D3",[5],−1.447
